Reference: ChEMBL document CHEMBL1201862, “PubChem BioAssay data set” (2004)
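Five compound concentrations were applied to cells in 96-well plates for 48 hours; endpoints were derived by simple linear interpolation of the resulting dose-response curve. Abbreviation: GI50, concentration required for 50% inhibition of growth.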 Active and inactive are the calls of the source. No stated cut-off is given here; in the data, active = GI50 up to about 1.1 µM and inactive = higher.

What was measured:
Test in all cases: growth of human tumour cells (NCI), 48 h
HCT-116 = system: HCT-116
SW-620 = system: SW-620
HOP-92 = system: HOP-92
MCF7 = system: MCF7
NCI/ADR-RES = system: NCI/ADR-RES
OVCAR-4 = system: OVCAR-4
SF-539 = system: SF-539
T47D = system: T47D
MDA-MB-435 = system: MDA-MB-435
SF-268 = system: SF-268
SK-MEL-2 = system: SK-MEL-2
SR = system: SR
RPMI-8226 = system: RPMI-8226
TK-10 = system: TK-10
BT-549 = system: BT-549
SNB-75 = system: SNB-75
MOLT-4 = system: MOLT-4
CAKI-1 = system: CAKI-1
SN12C = system: SN12C
SK-MEL-28 = system: SK-MEL-28

Measured: GI50

Nc1nc2c(c(-c3ccccc3Cl)n1)COC/C2=C\c1ccccc1Cl
inactive: HCT-116 15.8 µM | SW-620 16.6 µM | HOP-92 14.8 µM | MCF7 14.5 µM | NCI/ADR-RES 16.8 µM | OVCAR-4 19.7 µM | SF-539 18.2 µM | T47D 17.1 µM | MDA-MB-435 10.3 µM | SF-268 16.9 µM | SK-MEL-2 16.9 µM | SR 5.16 µM | RPMI-8226 10.6 µM | TK-10 17.6 µM | BT-549 16 µM | SNB-75 15.9 µM | MOLT-4 12.9 µM | CAKI-1 16.3 µM | SN12C 16.6 µM

CCOP(=O)(OCC)C(C#N)Cc1ccco1 (configuration not stated)
inactive: HCT-116 > 10 µM | SK-MEL-28 > 10 µM | SW-620 > 10 µM | HOP-92 > 10 µM | MCF7 > 10 µM | NCI/ADR-RES > 10 µM | OVCAR-4 > 10 µM | SF-539 > 10 µM | T47D > 10 µM | MDA-MB-435 > 10 µM | SF-268 > 10 µM | SK-MEL-2 > 10 µM | SR > 10 µM | RPMI-8226 > 10 µM | TK-10 > 10 µM | BT-549 > 10 µM | SNB-75 5.94 µM | MOLT-4 > 10 µM | CAKI-1 > 10 µM | SN12C > 10 µM

CCN(C(=O)N[C@H](C(=O)N[C@@H](C)C(=O)OC)C(C)C)c1ccccc1
inactive: HCT-116 22.5 µM | SK-MEL-28 33.1 µM | SW-620 39.2 µM | HOP-92 24 µM | MCF7 31 µM | NCI/ADR-RES > 100 µM | OVCAR-4 65 µM | SF-539 19.2 µM | T47D 29.8 µM | MDA-MB-435 21.2 µM | SF-268 > 100 µM | SK-MEL-2 28.8 µM | SR 31.2 µM | RPMI-8226 33.4 µM | TK-10 35.7 µM | BT-549 60.4 µM | SNB-75 32.1 µM | MOLT-4 65.2 µM | CAKI-1 > 100 µM | SN12C 33 µM

C/C(=N\N)C(CN1CCOCC1)C(c1ccccc1)c1c(O)c2ccccc2oc1=O (configuration not stated)
inactive: HCT-116 > 100 µM | SK-MEL-28 > 100 µM | SW-620 > 100 µM | HOP-92 26.3 µM | MCF7 56 µM | NCI/ADR-RES 65.9 µM | OVCAR-4 77.3 µM | SF-539 > 100 µM | T47D 12.4 µM | MDA-MB-435 53.7 µM | SF-268 > 100 µM | SK-MEL-2 > 100 µM | SR 46 µM | RPMI-8226 > 67.1 µM | TK-10 > 100 µM | BT-549 32.3 µM | SNB-75 42.9 µM | MOLT-4 40.5 µM | CAKI-1 > 100 µM | SN12C > 100 µM

Cc1cccc(NC(=S)NNC(=O)c2cc(-c3ccccc3)nc3ccccc23)c1
inactive: HCT-116 20.8 µM | SK-MEL-28 38.4 µM | SW-620 36.3 µM | HOP-92 26.2 µM | MCF7 20.5 µM | NCI/ADR-RES 36.7 µM | OVCAR-4 57.9 µM | SF-539 21.8 µM | T47D 34.1 µM | MDA-MB-435 28.4 µM | SF-268 42 µM | SK-MEL-2 21.8 µM | SR 17.9 µM | RPMI-8226 30.1 µM | TK-10 40.4 µM | BT-549 47.9 µM | SNB-75 36.6 µM | MOLT-4 27.5 µM | CAKI-1 32.7 µM | SN12C 40.1 µM

Cc1c(-c2ccccc2)c(C#N)c2nnn(-c3ccc([N+](=O)[O-])cc3)c(=O)n12
inactive: HCT-116 24.5 µM | SK-MEL-28 32.6 µM | SW-620 7.78 µM | HOP-92 16.5 µM | MCF7 16.2 µM | NCI/ADR-RES 15.9 µM | OVCAR-4 10.4 µM | SF-539 10.1 µM | T47D 21.9 µM | MDA-MB-435 24.8 µM | SF-268 12.7 µM | SK-MEL-2 8.91 µM | SR 7.31 µM | RPMI-8226 20.7 µM | TK-10 28.1 µM | BT-549 26.9 µM | SNB-75 14.5 µM | CAKI-1 29.9 µM | SN12C 22.4 µM

O=C(O)c1cc(C(=O)O)cc(N2C(=O)c3ccccc3C2=O)c1
inactive: HCT-116 > 100 µM | SK-MEL-28 > 100 µM | SW-620 > 100 µM | HOP-92 > 100 µM | MCF7 > 100 µM | NCI/ADR-RES > 100 µM | OVCAR-4 > 100 µM | SF-539 > 100 µM | T47D > 100 µM | MDA-MB-435 > 100 µM | SF-268 > 100 µM | SK-MEL-2 > 100 µM | SR > 100 µM | RPMI-8226 > 100 µM | TK-10 > 100 µM | BT-549 > 100 µM | SNB-75 > 100 µM | CAKI-1 > 100 µM | SN12C > 100 µM
